From patent US7977327B2, “Substituted pyrrolidine derivative” (Daiichi Sankyo Company, Limited, priority 2004, dated 2011)
In brackets after ≈: the same amount, converted by molar mass. Structures can show the parent of a compound that is named as a salt. Where two headings read alike, the source gives them in different places. Marks after values point to notes of the source that are not given here.

Legend:
[1] = test system: E. coli NIHJ; assay: Antibacterial activity (MIC), standard method of the Japan Society of Chemotherapy; assay type: cell-based; details: Escherichia coli
Procedure: (§1) The antimicrobial activities of the compounds of the present invention were determined according to a standard method designated by the Japan Society of Chemotherapy. The results are expressed by MIC (μg/mL) (Table 1). In Table 1, S. aureus 870307 and S. pneumonia J24 are quinolone-resistant bacteria.

[2] = test system: E. faevcalis ATCC 19433; assay: as above; assay type: cell-based
Procedure: as §1

[3] = test system: K. pneumoniae TYPE I; assay: as above; assay type: cell-based; details: Klebsiella pneumoniae
Procedure: as §1

[4] = test system: P. Vulgalis 08601; assay: as above; assay type: cell-based
Procedure: as §1

[5] = test system: P. aeruginosa 32104; assay: as above; assay type: cell-based; details: Pseudomonas aeruginosa
Procedure: as §1

[6] = test system: P. aeruginosa 32121; assay: as above; assay type: cell-based; details: Pseudomonas aeruginosa
Procedure: as §1

[7] = test system: S. aureus 870307; assay: as above; assay type: cell-based; details: Staphylococcus aureus
Procedure: as §1

[8] = test system: S. aureus FDA 209P; assay: as above; assay type: cell-based; details: Staphylococcus aureus, FDA209P
Procedure: as §1

[9] = test system: S. epidermidis 56500; assay: as above; assay type: cell-based; details: Staphylococcus epidermidis
Procedure: as §1

[10] = test system: S. flexneri 2A 5503; assay: as above; assay type: cell-based; details: Shigella flexneri, 2A5503, read-out: MIC
Procedure: as §1

[11] = test system: S. maltophilia IID 1275; assay: as above; assay type: cell-based; details: Stenotrophomonas maltophilia, IID1275
Procedure: as §1

[12] = test system: S. marcescens 10100; assay: as above; assay type: cell-based; details: Serratia marcescens
Procedure: as §1

[13] = test system: S. pneumoniae J24; assay: as above; assay type: cell-based; details: Streptococcus pneumoniae
Procedure: as §1

[14] = test system: S. pyogenes G-36; assay: as above; assay type: cell-based; details: Streptococcus pyogenes, G36
Procedure: as §1

[15] = test system: Slc:ddY male mice; assay: Effect of inducing convulsion, intracisternal administration to mice; assay type: in vivo; details: i.cist., Probit method
Procedure: The compounds (Compound Nos. 1, 2, and 3) of the present invention and Comparative Compounds A and B were individually dissolved in 5% glucose, to thereby prepare several samples to be tested. Groups of six-week-old Slc:ddY male mice (body weight: 23.9 to 27.4 g), each group consisting of 6 mice, were employed in the test. Each of the above-prepared samples was administered intracisternally to each mouse belonging to each group at concentrations shown in Tables 2 and 3 (5 μL/mouse). During 30 minutes after administration, it was observed whether each mouse suffered convulsion or died in an individual cage. Administration was performed according to the method described by Ueda, et al. (Reference 1).
Reference 1: Ueda H, Amano H, Shiomi H, Takagi H: Comparison of the analgesic effects of various opioid peptides by a newly devised intracisternal injection technique in conscious mice. Eur J Pharmacol. 1979; 56: 265-8.
Significant difference test between groups was performed in terms of incidence of convulsion according to the Fisher's direct probability calculation method (one-sided test, level of significance: P<0.05). On the basis of percentile incidence of convulsion, CD50 (50% concentration for inducing convulsion) and 95% confidence limit were calculated by the Probit method.

[16] = test system: Chinese hamster lung (CHL/IU) cells; assay: Effect of inducing chromosomal aberration; assay type: cell-based; details: for Percentile induction of structural aberration (TA %): 24 hours, CHL/IU cells; for Significant increase in number of the cells exhibiting chromosomal aberration: at a concentration of up to 100 μg/mL
Procedure: From each sample solution, samples to be tested having a concentration of 1, 3, 10, 30, 50, and 100 μg/mL (as reduced to free form) were prepared. As a negative control, 0.1 mol/L NaOH was employed.
Chinese hamster lung (CHL/IU) cells in logarithmic growth phase were employed. The cells were treated in a culture solution containing each sample to be tested for 24 hours. Subsequently, a chromosome specimen was prepared from the thus-treated cells. The culture solution employed was an Eagle's MEM (product of NISSUI PHARMACEUTICAL CO., LTD.) medium containing 15% fetal bovine serum (15% FBS-MEM).
In each sample concentration, 100 cells during metaphase were observed, to thereby record types and numbers of the chromosomal aberration.

[17] = E. faevcalis ATCC 19433, read-out: MIC
[18] = K. pneumoniae TYPE I, read-out: MIC
[19] = P. Vulgalis 08601, read-out: MIC
[20] = P. aeruginosa 32104, read-out: MIC
[21] = P. aeruginosa 32121, read-out: MIC
[22] = S. aureus 870307, quinolone-resistant, read-out: MIC
[23] = S. aureus FDA 209P, read-out: MIC
[24] = S. epidermidis 56500, read-out: MIC
[25] = S. maltophilia IID 1275, read-out: MIC
[26] = S. marcescens 10100, read-out: MIC
[27] = S. pneumoniae J24, quinolone-resistant, read-out: MIC
[28] = S. pyogenes G-36, read-out: MIC

SMILES	MIC [10] [µg/mL]	CD50 (50% concentration for inducing convulsion), with 95% confidence limit [15]	MIC ([1]; E. coli NIHJ, read-out: MIC) [µg/mL]	MIC [2, 17] [µg/mL]	MIC [3, 18] [µg/mL]	MIC [4, 19] [µg/mL]	MIC [5, 20] [µg/mL]	MIC [6, 21] [µg/mL]	MIC [7, 22] [µg/mL]	MIC [8, 23] [µg/mL]	MIC [9, 24] [µg/mL]	MIC [11, 25] [µg/mL]	MIC [12, 26] [µg/mL]	MIC [13, 27] [µg/mL]	MIC [14, 28] [µg/mL]	Percentile induction of structural aberration (TA %) ([16]; 1 μg/mL) [%]	Percentile induction of structural aberration (TA %) ([16]; 3 μg/mL) [%]	Percentile induction of structural aberration (TA %) ([16]; 10 μg/mL) [%]	Percentile induction of structural aberration (TA %) ([16]; 30 μg/mL)	Percentile induction of structural aberration (TA %) ([16]; 50 μg/mL)	other results
COc1c(N2C[C@@H](N)[C@@H](C)C2)c(F)cc2c(=O)c(C(=O)O)cn([C@@H]3C[C@@H]3F)c12 [Comparative Compound A, 7-[(3S,4S)-3-Amino-4-methylpyrrolidin-1-yl]-6-fluoro-1-[(1R,2S)-2-fluorocyclopropyl]-1,4-dihydro-8-methoxy-4-oxoquinoline-3-carboxylic acid-hydrochloride, reference compound]	0.006	12.7 (7.7-24.9)^a) μg/5 μL/mouse	–	–	–	–	–	–	–	–	–	–	–	–	–	–	–	–	–	–	MIC [1]: 0.006 µg/mL; MIC [2]: 0.1 µg/mL; MIC [3]: 0.05 µg/mL; MIC [4]: 0.006 µg/mL; MIC [5]; 32104: 0.1 µg/mL; MIC [6]; 32121: 0.05 µg/mL; MIC [7]; 870307: 0.39 µg/mL; MIC [8]: 0.012 µg/mL; MIC [9]; 56500: 0.05 µg/mL; MIC [11]: 0.1 µg/mL; MIC [12]; 10100: 0.05 µg/mL; MIC ([13]; J24): 0.025 µg/mL; MIC [14]: 0.05 µg/mL
C[C@H]1CN(c2c(F)cc3c(=O)c(C(=O)O)cn4c3c2OC[C@@H]4C)C[C@H]1N [Comparative Compound B, (3S)-10-[(3S,4S)-3-Amino-4-methylpyrrolidin-1-yl]-9-fluoro-2,3-dihydro-3-methyl-7-oxo-7H-pyrido[1,2,3-de][1,4]benzoxazine-6-carboxylic acid-hydrochloride, reference compound]	0.012	28.6 (16.8-48.5)^a) μg/5 μL/mouse	–	–	–	–	–	–	–	–	–	–	–	–	–	–	–	–	–	–	MIC [1]: 0.012 µg/mL; MIC [2]: 0.2 µg/mL; MIC [3]: 0.05 µg/mL; MIC [4]: 0.006 µg/mL; MIC [5]; 32104: 0.1 µg/mL; MIC [6]; 32121: 0.025 µg/mL; MIC [7]; 870307: 3.13 µg/mL; MIC [8]: 0.012 µg/mL; MIC [9]; 56500: 0.1 µg/mL; MIC [11]: 0.39 µg/mL; MIC [12]; 10100: 0.05 µg/mL; MIC ([13]; J24): 0.1 µg/mL; MIC [14]: 0.1 µg/mL
Cc1c(N2C[C@@H](N)[C@@H](C)C2)c(F)cc2c(=O)c(C(=O)O)cn(C3CC3)c12 [Comparative Compound C, reference compound]	0.025 (≈ 0.0696 µM)	–	0.012 (≈ 0.0334 µM)	0.2 (≈ 0.556 µM)	0.05 (≈ 0.139 µM)	0.05 (≈ 0.139 µM)	0.39 (≈ 1.09 µM)	0.2 (≈ 0.556 µM)	1.56 (≈ 4.34 µM)	0.025 (≈ 0.0696 µM)	0.1 (≈ 0.278 µM)	0.2 (≈ 0.556 µM)	0.2 (≈ 0.556 µM)	0.1 (≈ 0.278 µM)	0.2 (≈ 0.556 µM)	3	4	5	72* %	98* %	Percentile induction of structural aberration (TA %) ([16]; 100 μg/mL): TOX*^2; Observation of chromosomes (cytotoxicity) ([16]; at a concentration of 100 μg/mL): could not be observed
CC[C@H]1CN(c2c(F)cc3c(=O)c(C(=O)O)cn([C@@H]4C[C@@H]4F)c3c2OC)C[C@H]1N [Compound No. 1, 7-[(3S,4S)-3-Amino-4-ethylpyrrolidin-1-yl]-6-fluoro-1-[(1R,2S)-2-fluorocyclopropyl]-8-methoxy-1,4-dihydro-4-oxoquinoline-3-carboxylic acid]	0.006 (≈ 0.0147 µM)	49.2^b) μg/5 μL/mouse	0.006 (≈ 0.0147 µM)	0.1 (≈ 0.245 µM)	0.025 (≈ 0.0614 µM)	0.012 (≈ 0.0295 µM)	0.2 (≈ 0.491 µM)	0.1 (≈ 0.245 µM)	0.2 (≈ 0.491 µM)	0.006 (≈ 0.0147 µM)	0.05 (≈ 0.123 µM)	0.05 (≈ 0.123 µM)	0.1 (≈ 0.245 µM)	0.025 (≈ 0.0614 µM)	0.05 (≈ 0.123 µM)	0	1	2	3%	2%	Percentile induction of structural aberration (TA %) ([16]; 100 μg/mL): 7%; Significant increase in number of the cells exhibiting chromosomal aberration [16]: not observed
CC[C@H]1CN(c2c(F)cc3c(=O)c(C(=O)O)cn([C@@H]4C[C@@H]4F)c3c2C)C[C@H]1N [Compound No. 2, 7-[(3S,4S)-3-Amino-4-ethylpyrrolidin-1-yl]-6-fluoro-1-[(1R,2S)-2-fluorocyclopropyl]-8-methyl-1,4-dihydro-4-oxoquinoline-3-carboxylic acid]	≤ 0.003	–	≤ 0.003	0.1 (≈ 0.255 µM)	0.025 (≈ 0.0639 µM)	0.006 (≈ 0.0153 µM)	0.05 (≈ 0.128 µM)	0.025 (≈ 0.0639 µM)	0.39 (≈ 0.996 µM)	0.006 (≈ 0.0153 µM)	0.025 (≈ 0.0639 µM)	0.05 (≈ 0.128 µM)	0.025 (≈ 0.0639 µM)	0.025 (≈ 0.0639 µM)	0.025 (≈ 0.0639 µM)	1	1	1	2%	3%	Percentile induction of structural aberration (TA %) ([16]; 100 μg/mL): 8%; Significant increase in number of the cells exhibiting chromosomal aberration [16]: not observed
COc1c(N2C[C@@H](N)[C@@H](C3CC3)C2)c(F)cc2c(=O)c(C(=O)O)cn([C@@H]3C[C@@H]3F)c12 [Compound No. 8, 7-[(3S,4S)-3-Amino-4-cyclopropylpyrrolidin-1-yl]-6-fluoro-1-[(1R,2S)-2-fluorocyclopropyl]-8-methoxy-1,4-dihydro-4-oxoquinoline-3-carboxylic acid]	0.025 (≈ 0.0596 µM)	–	0.006 (≈ 0.0143 µM)	0.1 (≈ 0.238 µM)	0.05 (≈ 0.119 µM)	0.025 (≈ 0.0596 µM)	0.2 (≈ 0.477 µM)	0.1 (≈ 0.238 µM)	0.39 (≈ 0.93 µM)	0.012 (≈ 0.0286 µM)	0.1 (≈ 0.238 µM)	0.2 (≈ 0.477 µM)	0.1 (≈ 0.238 µM)	0.1 (≈ 0.238 µM)	0.1 (≈ 0.238 µM)	–	–	–	–	–	melting point: 211 to 214 °C
Cc1c(N2C[C@@H](N)[C@@H](C(C)C)C2)c(F)cc2c(=O)c(C(=O)O)cn([C@@H]3C[C@@H]3F)c12 [Compound No. 16, 7-[(3S,4S)-3-Amino-4-isopropylpyrrolidine-1-yl]-6-fluoro-1-[(1R,2S)-2-fluorocyclopropyl]-8-methyl-1,4-dihydro-4-oxoquinoline-3-carboxylic acid]	0.006 (≈ 0.0148 µM)	–	0.006 (≈ 0.0148 µM)	0.1 (≈ 0.247 µM)	0.025 (≈ 0.0617 µM)	0.025 (≈ 0.0617 µM)	0.2 (≈ 0.493 µM)	0.1 (≈ 0.247 µM)	0.1 (≈ 0.247 µM)	0.006 (≈ 0.0148 µM)	0.025 (≈ 0.0617 µM)	0.05 (≈ 0.123 µM)	0.05 (≈ 0.123 µM)	0.05 (≈ 0.123 µM)	0.025 (≈ 0.0617 µM)	–	–	–	–	–	melting point: 124 to 127 °C
